# Measurements reported in patent publication US20090176288A1, “Methods and Compositions for Butanol Production” (priority 2006, published 2009).
# Where two headings read alike, the source gives them in different places.
# Columns and labels:
# [1] = tested on: omrA/pCR-II TOPO/TOP10 E. coli cells
# Protocol: Survival rates of E. coli strains with and without the omrA-plasmid were determined. […] For this experiment, the omrA gene was inserted into the expression plasmid pCR-Blunt II-TOPO (invitrogen, Carlsbad, Calif.) hosted by the TOP10 E. coli strain [F-mcrA Δ (mcr-hsdRMS-mcrBC) Φ)80lacZ ΔM15 ΔlacX74 recA1 deoR araD139 Δ (ara-leu)7697 galU galK rpsL (Str^R) endA1 nupG]. The plasmid with no insertion was used as a control. Flasks (50 ml) containing 10 ml of LB broth with 50 μg/ml kanamycin were inoculated with 100 μl of bacterial cells grown overnight at 37° C. in the same medium and incubated at 37° C. with aeration (200 rpm) for 4 hours. Bacterial growth was stopped by adding chloramphenicol (100 μg/ml) and optical density of cell cultures measured spectrophotometrically at 600 nm.
# [2] = tested on: Clostridium acetobutylicum ATCC 824 (wild type); settings: 3 days, 37° C.
# Protocol: (§1) But-R/1 mutant (ATCC No. PTA-8515), a derivative of C. acetobutylicum ATCC 824, was produced via long-term incubation of wild-type C. acetobutylicum 824 in reinforced Clostridium medium (“RCM”) with glucose (0.5%) and butanol (2.5% v/v) under anaerobic conditions at 37° C. When turbidity developed, the bacterial suspension was spread onto RCM agar with 2.5% butanol. […] Mutants were purified twice using RCM agar containing 2.5% of butanol. […] Cells were grown for 3 days in RCM medium in an anaerobic jar at 37° C. Optical density of cell suspensions was measured at 600 nm spectrophotometrically.
# [3] = tested on: BUT-R/1 mutant (ATCC No. PTA-8515); settings: 3 days, 37° C.
# Protocol: as §1
substance,measurement,setting,value
butanol,resistance to butanol compared with E. coli TOPO10 host cells,[1]; FIG. 2,slightly more resistant
same,bacterial survival in presence of butanol compared with host strain with no omrA gene,"[1]; FIG. 3, varying levels of butanol",increased bacterial survival significantly
same,"Growth inhibition, WT",[2]; butanol 0.3 % (v/v),8.4
same,"Growth inhibition, WT",[2]; butanol 0.6 % (v/v),40.4
same,"Growth inhibition, WT",[2]; butanol 0.9 % (v/v),56.1
same,"Growth inhibition, WT",[2]; butanol 1.2 % (v/v),89.7
same,"Growth inhibition, WT",[2]; butanol 1.5 % (v/v),94.2
same,"Growth inhibition, WT",[2]; butanol 1.8 % (v/v),99.5
same,"Growth inhibition, Mutant",[3]; butanol 0.3 % (v/v),0
same,"Growth inhibition, Mutant",[3]; butanol 0.6 % (v/v),0
same,"Growth inhibition, Mutant",[3]; butanol 0.9 % (v/v),0
same,"Growth inhibition, Mutant",[3]; butanol 1.2 % (v/v),23.2
same,"Growth inhibition, Mutant",[3]; butanol 1.5 % (v/v),73.8
same,"Growth inhibition, Mutant",[3]; butanol 1.8 % (v/v),84.2
